Measured values: US12625141B2, “Fluorescent dye, preparation method and uses thereof” (FLUORESCENCE DIAGNOSIS (SHANGHAI) BIOTECH COMPANY LTD., priority 2019, dated 2026)

How the values were obtained:
[1] = Fluorescence emission in glycerol versus methanol (viscosity response); assay type: physicochemical; conditions: for Glycerol/methanol fluorescence intensity ratio: 1×10^-5 M in glycerol and methanol, maximum excitation wavelength of each dye; for Emission (nm): 1×10^-5 M, maximum excitation wavelength of each fluorescent dye
[2] = test system: F30-8Pepper-5 RNA aptamer; assay: Binding to RNA aptamer, optical properties after binding; conditions: for Em/nm / Ex/nm / ε / QY (−): after binding to RNA aptamer; for QY (−): relative method with Rhodamine 6G as the standard; for Kd: binding to RNA aptamer; for Activation Multiple: fluorescence activation after binding to RNA aptamer
[3] = test system: RNA aptamer in cells; assay: Labeling intracellular RNA aptamers in cells; assay type: cell-based; conditions: for Fluorescence of cells not expressing the RNA aptamer: cells not expressing the RNA aptamer (FIG. 17B); for Fluorescence of cells transcribing the RNA aptamer: cells transcribing the RNA aptamer (FIG. 17A)
[4] = Fluorescence emission at different viscosity conditions in diethanol-glycerol mixed solution; assay type: physicochemical; conditions: 1×10^−5 M, excitation at 480 nm
[5] = test system: ACTB-4Pepper RNA aptamer (skeleton protein mRNA) in 293T/17 cell line; assay: Labeling intracellular mRNA, flow detection; assay type: cell-based; conditions: 0.2 μM in PBS, incubated for 5 minutes
Description: FIGS. 18A and 18B are the application of molecular rotors III-3, III-43 in labeling intracellular mRNA.

Structure (SMILES)	Glycerol/methanol fluorescence intensity ratio [1]	Emission (nm) [1] [nm]	also measured
CN1CCc2cc(/C=C(\C#N)c3ccc(C#N)cc3)ccc21 [III-16]	491	555	
COCCOCCOCCOCCOCCN(C)c1cc2c(s1)-c1sc(/C=C(\C#N)c3ccc(C#N)cc3)cc1C2(C)C [III-35]	710	690	
CN(C)c1ccc(-c2ccc(/C=C(\C#N)c3ccc(C#N)cc3)s2)cc1 [III-23]	687	661	
N#C/C(=C\c1ccc(-c2ccc(N3CCOCCOCCOCCOCC3)cc2)s1)c1ccc(C#N)cc1 [III-24]	596	662	
CN(CCO)c1ccc(/C=C(\C#N)c2ccc(C#N)cc2)cn1 [III-8]	1168	495	
CCN(CC)c1cc2sc(/C=C(\C#N)c3ccc(C#N)cc3)cc2s1 [III-20]	836	620	
CN(C)c1ccc(/C=C(\C#N)c2ccc(C#N)cc2)nc1 [III-10]	1620	520	
CN(CCO)c1ccc(/C=C(\C#N)c2ccc(C#N)cn2)cc1 [III-13]	752	545	
CN(C)c1cc2sc3cc(/C=C(\C#N)c4ccc([S+](C)[O-])cc4)sc3c2s1 (centres unmarked) [III-30]	756	660	
CCN(CC)c1ccc(-c2ccc(/C=C(\C#N)c3ccc(C#N)cc3)s2)s1 [III-25]	783	678	
CN(CCO)c1ccc(/C=C(\C#N)c2cnc(C#N)cn2)cc1 [III-14]	785	550	
CN(C)CCN(C)c1cnc(/C=C(\C#N)c2ccc(C#N)cc2)cn1 [III-7]	977	485	Em/nm [2]: 485 nm; Ex/nm [2]: 443 nm; ε [2]: 49100 M⁻¹ cm⁻¹; QY (−) [2]: 0.42; Kd [2]: 8 nM; Activation Multiple [2]: 691; Fluorescence of cells not expressing the RNA aptamer [3]: no fluorescence; Fluorescence of cells transcribing the RNA aptamer [3]: bright fluorescence
CCOC(=O)c1ccc(/C(C#N)=C/c2cc3sc4cc(N(C)C)sc4c3s2)cc1 [III-29]	684	665	
CN(C)CCN(C)c1ccc(/C=C(\C#N)c2ccc(C#N)cc2)cc1 [III-4]	892	521	Sensitivity of fluorescence intensity to viscosity [4]: sensitive to viscosity; Em/nm [2]: 514 nm; Ex/nm [2]: 458 nm; ε [2]: 44100 M⁻¹ cm⁻¹; QY (−) [2]: 0.45; Activation Multiple [2]: 4748; Fluorescence of cells not expressing the RNA aptamer [3]: no fluorescence; Fluorescence of cells transcribing the RNA aptamer [3]: bright fluorescence
CCN(CC)CCN(C)c1ccc(/C=C(\C#N)c2ccc(C#N)cc2)cn1 [III-9]	920	490	
CN(CCO)c1ccc2cc(/C=C(\C#N)c3ccc(C#N)cc3)sc2c1 [III-18]	978	595	Em/nm [2]: 599 nm; Ex/nm [2]: 515 nm; ε [2]: 54400 M⁻¹ cm⁻¹; QY (−) [2]: 0.43; Kd [2]: 18 nM; Activation Multiple [2]: 708; Fluorescence of cells not expressing the RNA aptamer [3]: no fluorescence; Fluorescence of cells transcribing the RNA aptamer [3]: bright fluorescence
CN(CCO)c1ccc(/C=C(\C#N)c2ccc(C#N)cc2)cc1 [III-3]	1025	530	Sensitivity of fluorescence intensity to viscosity [4]: sensitive to viscosity; Em/nm [2]: 530 nm; Ex/nm [2]: 485 nm; ε [2]: 65300 M⁻¹ cm⁻¹; QY (−) [2]: 0.66; Kd [2]: 3.5 nM; Activation Multiple [2]: 3595; Fluorescence of cells not expressing the RNA aptamer [3]: no fluorescence; Fluorescence of cells transcribing the RNA aptamer [3]: bright fluorescence; Background fluorescence in cells [5]: no obvious background fluorescence; Labeling of skeleton protein mRNA in cell lines expressing target RNA [5]: could specifically mark the mRNA of skeleton protein

Structure (SMILES)	Glycerol/methanol fluorescence intensity ratio [1]	Emission (nm) [1] [nm]	also measured
CN(CCO)c1cc2c(s1)-c1sc(/C=C(\C#N)c3ccc(S(N)(=O)=O)cc3)cc1[Si]2(C)C [III-32]	817	690	
CN(CCO)c1cc2c(s1)-c1sc(/C=C(\C#N)c3ccc(C#N)cc3)cc1[Si]2(C)C [III-33]	691	705	
CN(CCO)c1cc2sc(/C=C(\C#N)c3ccc(C#N)cc3)cc2s1 [III-21]	544	620	Em/nm [2]: 620 nm; Ex/nm [2]: 577 nm; ε [2]: 10000 M⁻¹ cm⁻¹; QY (−) [2]: 0.58; Kd [2]: 6.1 nM; Activation Multiple [2]: 12600; Fluorescence of cells not expressing the RNA aptamer [3]: no fluorescence; Fluorescence of cells transcribing the RNA aptamer [3]: bright fluorescence
CN(CCO)c1cc2sc3cc(/C=C(\C#N)c4ccc(C#N)cc4)sc3c2s1 [III-28]	559	662	Sensitivity of fluorescence intensity to viscosity [4]: sensitive to viscosity
CNc1ccc2cc(/C=C(\C#N)c3ccc(C#N)cc3)sc2c1 [III-17]	828	587	
CN(CCO)c1cnc(/C=C(\C#N)c2ccc(C#N)cc2)cn1 [III-6]	1148	490	Em/nm [2]: 497 nm; Ex/nm [2]: 435 nm; ε [2]: 54700 M⁻¹ cm⁻¹; QY (−) [2]: 0.57; Kd [2]: 6.7 nM; Activation Multiple [2]: 16601; Fluorescence of cells not expressing the RNA aptamer [3]: no fluorescence; Fluorescence of cells transcribing the RNA aptamer [3]: bright fluorescence
N#C/C(=C\c1cc2c3c(c1)CCCN3CCC2)c1ccc(C#N)cc1 [III-15]	1011	561	
CN(C)c1ccc(-c2ccc(/C=C(\C#N)c3ccc(C#N)cc3)cc2)cc1 [III-22]	989	650	
CN(CCO)c1cc2c(s1)-c1sc(/C=C(\C#N)c3ccc(C(N)=O)cc3)cc1C2(C)C [III-34]	489	689	Sensitivity of fluorescence intensity to viscosity [4]: sensitive to viscosity
CCN(CC)c1ccc(/C=C(\C#N)c2ccc(C#N)cc2)cc1 [III-2]	870	530	
CN(C)c1ccc(-c2ccc(/C=C(\C#N)c3ccc(C(=O)O)cc3)s2)s1 [III-26]	368	676	
CN(CCO)c1ncc(/C=C(\C#N)c2ccc(C#N)cc2)cn1 [III-11]	869	470	
CN(C)c1ccc(/C=C(\C#N)c2ccc(C#N)cc2)cc1 [III-1]	990	530	
CN(C)c1cc2sc(/C=C(\C#N)c3ccc(C#N)cc3)cc2s1 [III-19]	991	620	
CN(CCO)c1ccc(/C=C(\C#N)c2nc3ccccc3s2)cc1 [III-43, reference compound]			Background fluorescence in cells [5]: higher than III-3; Labeling of skeleton protein mRNA in cell lines expressing target RNA [5]: unclear whether ACTB was expressed
CN(C)CCN(C)c1cnc(/C=C(\C#N)c2ccc(C#N)cc2)nc1 [III-12]	855	542	
